The values that follow come from patent publication US8410310B2, “Trypsin-like serine protease inhibitors, and their preparation and use” (The Medicines Company (Leipzig) GmbH, priority 2006, dated 2013).

The Ki is a dissociation constant, usually derived from enzyme kinetics or from competition with a known ligand.

Like-named read-outs stand apart in the source and are kept apart here.

What all share (assay type): biochemical
The target of one experiment is Xa (Homo sapiens, UniProt P00742). Nature of the experiment: Determination of inhibition constants for Xa. The procedure:
(§1) The inhibitory effect for the individual enzymes was determined in analogy to a previously disclosed method (Stürzebecher et al., 1997).
(§2) For zero order kinetics, the reaction was stopped after 20 min by adding 25 μl of acetic acid (50% v/v), and the absorption at 405 nm was determined using a Microplate Reader (Multiscan Ascent, from Thermo). In the case of pseudo-first order kinetics, the reaction rates in the equilibrium state were ascertained by recording the reaction kinetics. The Ki values were ascertained either in accordance with Dixon (1953) by linear regression using a computer program or by parameter fitting in accordance with the rate equation for competitive inhibition. The Ki values are the average of at least two determinations.

Another experiment concerns the target plasmin (Homo sapiens, UniProt P00747). Put plainly: Determination of inhibition constants for plasmin. Also noted: purchased Calbiochem. The procedure:
as §1, §2

For the next experiment, the target named is Thrombin (Homo sapiens, UniProt P00734). Nature of the experiment: Determination of inhibition constants for thrombin. How it is done: as §1, §2
The target of the next experiment is plasma kallikrein (Homo sapiens, UniProt P03952). Put plainly: Determination of inhibition constants for PK. Set-up: purchased Enzyme Research Lab. / Enzyme Research Laboratories. The procedure: as §1, §2
plasma kallikrein, sequence (P03952 391-638 limits assumed): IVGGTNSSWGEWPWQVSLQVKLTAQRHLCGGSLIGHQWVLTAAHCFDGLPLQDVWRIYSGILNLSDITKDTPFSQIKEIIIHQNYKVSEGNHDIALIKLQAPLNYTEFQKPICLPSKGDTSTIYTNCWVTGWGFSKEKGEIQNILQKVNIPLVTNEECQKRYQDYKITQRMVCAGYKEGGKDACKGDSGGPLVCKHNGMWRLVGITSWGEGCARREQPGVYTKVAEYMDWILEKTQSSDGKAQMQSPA
plasma kallikrein, sequence (P03952 20-390 partner limits assumed): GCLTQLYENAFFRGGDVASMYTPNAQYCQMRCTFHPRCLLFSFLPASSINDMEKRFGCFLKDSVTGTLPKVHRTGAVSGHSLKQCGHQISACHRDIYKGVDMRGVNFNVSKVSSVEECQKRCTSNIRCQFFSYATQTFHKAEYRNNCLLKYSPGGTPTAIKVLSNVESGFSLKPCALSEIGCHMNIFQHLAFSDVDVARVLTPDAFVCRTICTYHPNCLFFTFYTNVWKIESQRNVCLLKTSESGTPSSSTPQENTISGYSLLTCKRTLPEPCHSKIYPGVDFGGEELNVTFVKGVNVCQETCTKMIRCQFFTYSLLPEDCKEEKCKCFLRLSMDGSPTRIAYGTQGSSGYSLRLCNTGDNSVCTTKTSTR
Setting [1] is: 25° C., substrate Chromozym PL, pH 8.0, read-out: Plasmin [Ki].
[2] abbreviates: 25° C., substrate S2302, pH 8.0, read-out: PK [Ki].
Setting [3] is: summary of results, read-out: Ki value of the plasma kallikrein inhibition.

plasmin, sequence (P00747 581-810 limits assumed): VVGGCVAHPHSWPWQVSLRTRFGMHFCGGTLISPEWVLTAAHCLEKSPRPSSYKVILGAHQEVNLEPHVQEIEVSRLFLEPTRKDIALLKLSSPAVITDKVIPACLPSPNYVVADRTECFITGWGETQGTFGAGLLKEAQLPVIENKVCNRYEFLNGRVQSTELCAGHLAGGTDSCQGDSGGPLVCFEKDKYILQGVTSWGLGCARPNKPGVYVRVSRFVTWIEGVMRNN
plasmin, sequence (P00747 97-580 partner limits assumed): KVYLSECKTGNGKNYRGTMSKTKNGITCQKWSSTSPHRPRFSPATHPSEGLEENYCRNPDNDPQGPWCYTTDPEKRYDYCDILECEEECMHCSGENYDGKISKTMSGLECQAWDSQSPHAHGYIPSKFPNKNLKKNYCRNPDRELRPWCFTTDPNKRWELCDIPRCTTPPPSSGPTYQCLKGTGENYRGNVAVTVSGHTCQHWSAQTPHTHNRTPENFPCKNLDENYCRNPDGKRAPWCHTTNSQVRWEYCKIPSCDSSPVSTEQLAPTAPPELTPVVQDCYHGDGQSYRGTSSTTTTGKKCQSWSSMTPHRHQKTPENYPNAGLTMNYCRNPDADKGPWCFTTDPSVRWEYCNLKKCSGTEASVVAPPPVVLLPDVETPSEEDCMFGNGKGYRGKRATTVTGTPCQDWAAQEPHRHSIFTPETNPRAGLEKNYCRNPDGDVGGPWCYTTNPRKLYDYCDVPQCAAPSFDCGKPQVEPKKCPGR
Xa, sequence (P00742 235-488 limits assumed): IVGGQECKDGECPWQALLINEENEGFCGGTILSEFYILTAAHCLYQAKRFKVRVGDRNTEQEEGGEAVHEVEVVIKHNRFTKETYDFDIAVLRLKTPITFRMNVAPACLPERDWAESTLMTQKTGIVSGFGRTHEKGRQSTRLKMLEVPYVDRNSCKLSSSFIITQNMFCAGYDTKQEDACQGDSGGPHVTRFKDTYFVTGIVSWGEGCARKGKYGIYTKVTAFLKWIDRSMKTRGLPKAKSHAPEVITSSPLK
Xa, sequence (P00742 41-179 limits assumed): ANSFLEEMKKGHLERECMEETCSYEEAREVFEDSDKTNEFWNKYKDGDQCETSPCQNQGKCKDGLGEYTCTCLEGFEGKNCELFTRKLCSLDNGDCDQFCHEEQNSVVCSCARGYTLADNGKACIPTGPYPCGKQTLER

With `N#Cc1cccc(C[C@@H](NS(=O)(=O)Cc2ccccc2)C(=O)N[C@@H](CCc2ccncc2)C(=O)NCc2ccc(C(=N)N)cc2)c1` [compound 45], the inhibitory constant (Ki) at Xa is below 1000 nM; on plasmin (setting [1]) it was below 10 nM; at Thrombin, below 100 nM; at plasma kallikrein (setting [2]) it was below 10 nM.
With `N=C(N)c1ccc(CNC(=O)[C@H](Cc2cccc(CN)c2)NC(=O)[C@@H](CCCc2ccccc2)NS(=O)(=O)Cc2ccc(C(=O)O)cc2)cc1` [compound 2], the inhibition constant Ki on Xa is below 100 nM; at plasmin (setting [1]), below 10 nM; at Thrombin it was below 1000 nM; on plasma kallikrein (setting [2]), below 10 nM.
Consider `N=C(N)c1ccc(CNC(=O)[C@H](CCc2ccc(CN)cc2)NC(=O)[C@@H](CCCc2ccccc2)NS(=O)(=O)Cc2ccccc2)cc1` [compound 31], for which the inhibitory constant (Ki) is below 1000 nM on Xa, below 10 nM at plasmin (setting [1]), below 100 nM on Thrombin and below 100 nM on plasma kallikrein (setting [2]).
Regarding `N=C(N)c1ccc(CNC(=O)[C@H](Cc2ccc(CN)cc2)NC(=O)[C@@H](CCCc2ccccc2)NS(=O)(=O)Cc2ccc(C(=O)O)cc2)cc1` [compound 29], the inhibition constant (Ki) is below 1000 nM at Xa; below 10 nM at plasmin (setting [1]); below 1000 nM at Thrombin; below 10 nM at plasma kallikrein (setting [2]); below 1 nM on plasma kallikrein (setting [3]).
As for `N=C(N)c1ccc(CNC(=O)[C@H](Cc2cccc(CN)c2)NC(=O)[C@@H](CCCc2ccc(OC(F)(F)F)cc2)NS(=O)(=O)Cc2ccccc2)cc1` [compound 12], the Ki at Xa is below 100 nM; on plasmin (setting [1]) it was below 10 nM; on Thrombin, below 1000 nM; at plasma kallikrein (setting [2]) it was below 10 nM.
For the molecule `N=C(N)c1ccc(CNC(=O)[C@H](CCc2ccccc2)NC(=O)[C@@H](CCCc2ccc[n+]([O-])c2)NS(=O)(=O)Cc2cccc(C(=O)O)c2)cc1` [compound 56], the inhibitory constant (Ki) on Xa is below 10 nM; on plasmin (setting [1]), below 10 nM; on Thrombin it was below 1000 nM; at plasma kallikrein (setting [2]), below 10 nM.
Turning to `CC(C)(C)OC(=O)NCCCC[C@@H](NS(=O)(=O)Cc1ccc(C(=O)O)cc1)C(=O)N[C@@H](Cc1cccc(CN)c1)C(=O)NCc1ccc(C(=N)N)cc1` [compound 58], the Ki at Xa was below 1000 nM; on plasmin (setting [1]), below 100 nM; at Thrombin, above 1000 nM; at plasma kallikrein (setting [2]), below 10 nM.
For `N=C(N)c1ccc(CNC(=O)[C@H](CCc2ccncc2)NC(=O)[C@@H](CCCc2ccccc2)NS(=O)(=O)Cc2cccc(C(=O)O)c2)cc1` [compound 40], the Ki is below 1000 nM on Xa; below 10 nM at plasmin (setting [1]); below 100 nM on Thrombin; below 10 nM at plasma kallikrein (setting [2]); below 1 nM on plasma kallikrein (setting [3]).
With `N=C(N)c1ccc(CNC(=O)[C@H](CCc2ccccc2)NC(=O)[C@@H](CCCc2ccc[n+]([O-])c2)NS(=O)(=O)Cc2ccccc2)cc1` [compound 55], the inhibition constant (Ki) on Xa is below 10 nM; on plasmin (setting [1]), below 10 nM; at Thrombin, below 100 nM; on plasma kallikrein (setting [2]), below 10 nM.
For the molecule `COC(=O)c1cccc(CS(=O)(=O)N[C@H](COC(C)(C)C)C(=O)N[C@@H](Cc2cccc(CN)c2)C(=O)NCc2ccc(C(=N)N)cc2)c1` [compound 66], the Ki at Xa is below 100 nM; on plasmin (setting [1]) it was below 10 nM; on Thrombin, above 1000 nM; on plasma kallikrein (setting [2]) it was below 10 nM.
Regarding `N=C(N)c1ccc(CNC(=O)[C@H](Cc2cccc(CN)c2)NC(=O)[C@H](NS(=O)(=O)Cc2ccccc2)C(c2ccccc2)c2ccccc2)cc1` [compound 22], the inhibitory constant (Ki) at Xa was below 100 nM; at plasmin (setting [1]) it was below 10 nM; on Thrombin, below 10 nM; on plasma kallikrein (setting [2]), below 10 nM.
Take `N=C(N)c1ccc(CNC(=O)[C@H](CCc2ccccc2)NC(=O)[C@@H](CCc2ccc(O)cc2)NS(=O)(=O)Cc2ccccc2)cc1` [compound 27]: the Ki was below 10 nM on Xa; below 10 nM at plasmin (setting [1]); below 1000 nM on Thrombin; below 10 nM on plasma kallikrein (setting [2]); below 1 nM on plasma kallikrein (setting [3]).
Turning to `N=C(N)c1ccc(CNC(=O)[C@H](Cc2cccc(CN)c2)NC(=O)[C@@H](Cc2ccc(-c3ccccc3)cc2)NS(=O)(=O)Cc2ccccc2)cc1` [compound 14], the inhibition constant (Ki) was below 100 nM at Xa; below 10 nM on plasmin (setting [1]); below 5 nM at plasmin (summary of results, read-out: Ki value of the plasmin inhibition); below 1000 nM at Thrombin; below 10 nM at plasma kallikrein (setting [2]).
On to `N=C(N)c1ccc(CNC(=O)[C@H](Cc2cccc(CN)c2)NC(=O)[C@@H](CCCC2CCCCC2)NS(=O)(=O)Cc2ccccc2)cc1` [compound 21], for which the Ki is below 100 nM at Xa, below 10 nM at plasmin (setting [1]), below 1000 nM at Thrombin and below 10 nM on plasma kallikrein (setting [2]).
For the molecule `N=C(N)c1ccc(CNC(=O)[C@H](Cc2cccc(CN)c2)NC(=O)[C@@H](Cc2ccc3ccccc3c2)NS(=O)(=O)Cc2ccccc2)cc1` [compound 17], the Ki at Xa was below 100 nM; on plasmin (setting [1]), below 10 nM; on Thrombin it was below 1000 nM; at plasma kallikrein (setting [2]), below 10 nM.
As for `CC(C)(C)OC[C@@H](NS(=O)(=O)Cc1ccccc1)C(=O)N[C@@H](CCc1cccc(CN)c1)C(=O)NCc1ccc(C(=N)N)cc1` [compound 73], the Ki is below 1000 nM on Xa, below 100 nM at plasmin (setting [1]), below 100 nM on Thrombin and below 100 nM on plasma kallikrein (setting [2]).
As to `COc1ccc(CCC[C@@H](NS(=O)(=O)Cc2ccccc2)C(=O)N[C@@H](Cc2cccc(CN)c2)C(=O)NCc2ccc(C(=N)N)cc2)cc1` [compound 10], the Ki at Xa was below 100 nM; on plasmin (setting [1]) it was below 10 nM; on Thrombin, below 1000 nM; at plasma kallikrein (setting [2]) it was below 10 nM.
On to `N=C(N)c1ccc(CNC(=O)[C@H](CCc2ccncc2)NC(=O)[C@@H](CC2CCCCC2)NS(=O)(=O)Cc2ccccc2)cc1` [compound 43], for which the Ki is below 100 nM on Xa, below 10 nM at plasmin (setting [1]), below 10 nM at Thrombin and below 100 nM on plasma kallikrein (setting [2]).
For `N=C(N)c1ccc(CNC(=O)[C@H](Cc2ccc(CN)cc2)NC(=O)[C@@H](CCCc2ccccc2)NS(=O)(=O)Cc2cccc(C(=O)O)c2)cc1` [compound 30], the Ki at Xa was below 1000 nM; at plasmin (setting [1]) it was below 10 nM; at Thrombin it was above 1000 nM; on plasma kallikrein (setting [2]), below 10 nM.
As to `N=C(N)c1ccc(CNC(=O)[C@H](CCc2ccccc2)NC(=O)[C@@H](CCCc2cccnc2)NS(=O)(=O)Cc2ccccc2)cc1` [compound 51], the inhibitory constant (Ki) at Xa, at plasmin (setting [1]), at Thrombin and at plasma kallikrein (setting [2]) was below 10 nM in each case.
Consider `N=C(N)c1ccc(CNC(=O)[C@H](Cc2cccc(CN)c2)NC(=O)[C@@H](CO)NS(=O)(=O)Cc2ccccc2)cc1` [compound 68], for which the Ki on Xa is above 1000 nM; on plasmin (setting [1]) it was below 100 nM; at Thrombin, above 1000 nM; at plasma kallikrein (setting [2]), below 10 nM.
For `N=C(N)c1ccc(CNC(=O)[C@H](Cc2c[nH]cn2)NC(=O)[C@@H](CCCc2ccccc2)NS(=O)(=O)Cc2ccccc2)cc1` [compound 32], the Ki on Xa is below 1000 nM; at plasmin (setting [1]), below 10 nM; on Thrombin, below 100 nM; on plasma kallikrein (setting [2]), below 100 nM.
For `N=C(N)c1ccc(CNC(=O)[C@H](CCc2ccccc2)NC(=O)[C@@H](CCCc2ccccc2)NS(=O)(=O)Cc2ccccc2)cc1` [compound 34], the inhibition constant (Ki) at Xa is below 1000 nM; at plasmin (setting [1]), below 10 nM; at Thrombin it was below 100 nM; at plasma kallikrein (setting [2]), below 10 nM.
Regarding `N=C(N)c1ccc(CNC(=O)[C@H](CCCc2ccccc2)NC(=O)[C@@H](CCc2ccncc2)NS(=O)(=O)Cc2ccccc2)cc1` [compound 48], the Ki was below 10 nM at Xa, below 10 nM at plasmin (setting [1]), below 1000 nM on Thrombin and below 10 nM at plasma kallikrein (setting [2]).
Regarding `N=C(N)c1ccc(CNC(=O)[C@H](Cc2cccc(CN)c2)NC(=O)[C@@H](Cc2cccc3ccccc23)NS(=O)(=O)Cc2ccc(C(=O)O)cc2)cc1` [compound 16], the inhibition constant (Ki) at Xa is below 1000 nM; on plasmin (setting [1]) it was below 10 nM; on Thrombin, below 1000 nM; on plasma kallikrein (setting [2]), below 10 nM.
As for `N=C(N)c1ccc(CNC(=O)[C@H](Cc2cccc(CN)c2)NC(=O)[C@@H](Cc2ccc3ccccc3c2)NS(=O)(=O)Cc2ccc(C(=O)O)cc2)cc1` [compound 19], the inhibition constant (Ki) on Xa is below 1000 nM; at plasmin (setting [1]) it was below 10 nM; on Thrombin, below 1000 nM; on plasma kallikrein (setting [2]) it was below 10 nM.
As for `CC(C)(C)OC(=O)NC[C@@H](NS(=O)(=O)Cc1ccccc1)C(=O)N[C@@H](Cc1cccc(CN)c1)C(=O)NCc1ccc(C(=N)N)cc1` [compound 60], the Ki is below 1000 nM on Xa, below 100 nM on plasmin (setting [1]), above 1000 nM at Thrombin and below 10 nM on plasma kallikrein (setting [2]).
For the molecule `N=C(N)c1ccc(CC[C@H](NC(=O)[C@@H](CO)NS(=O)(=O)Cc2ccccc2)C(=O)NCc2ccc(C(=N)N)cc2)cc1` [compound 78], the Ki was above 1000 nM on Xa, below 100 nM at plasmin (setting [1]), above 1000 nM at Thrombin and below 10 nM on plasma kallikrein (setting [2]).
Take `CC(C)(C)OC(=O)NCCCC[C@@H](NS(=O)(=O)Cc1ccccc1)C(=O)N[C@@H](CCc1ccncc1)C(=O)NCc1ccc(C(=N)N)cc1` [compound 62]: the Ki on Xa is below 1000 nM; at plasmin (setting [1]), below 10 nM; on Thrombin it was below 1000 nM; at plasma kallikrein (setting [2]), below 10 nM.
